For one data set, the target named is T1, hPTHR1 (Homo sapiens, UniProt Q03431).
T1 construct: similar to that of cells expressing full-length hPTHR1; expressed in transfected cells; host or cells: COS-7 (transient, FuGENE HD)
T1 sequence (Q03431 27-593 E93Y/D94P/K95Y/E96D/A97V/T99D/G100Y/S101A): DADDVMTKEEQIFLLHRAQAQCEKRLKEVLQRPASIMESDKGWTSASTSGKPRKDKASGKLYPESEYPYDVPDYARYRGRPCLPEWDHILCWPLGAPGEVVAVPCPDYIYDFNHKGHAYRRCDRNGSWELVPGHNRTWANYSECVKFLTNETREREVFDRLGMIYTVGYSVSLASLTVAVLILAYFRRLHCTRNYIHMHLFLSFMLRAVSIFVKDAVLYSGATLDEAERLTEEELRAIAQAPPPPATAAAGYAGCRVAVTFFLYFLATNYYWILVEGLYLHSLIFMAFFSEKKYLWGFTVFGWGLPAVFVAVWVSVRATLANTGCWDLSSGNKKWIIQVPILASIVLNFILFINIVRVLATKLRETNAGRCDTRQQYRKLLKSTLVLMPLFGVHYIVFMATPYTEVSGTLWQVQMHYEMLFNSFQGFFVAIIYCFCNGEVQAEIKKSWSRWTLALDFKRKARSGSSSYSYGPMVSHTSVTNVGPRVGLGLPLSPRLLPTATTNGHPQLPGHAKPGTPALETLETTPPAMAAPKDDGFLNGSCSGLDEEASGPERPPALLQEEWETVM
Briefly: cAMP production assay in COS-7 cells expressing hPTHR1. It counts as cell-based. Conditions: COS-7 cells expressing hPTHR1, 20 min. On the procedure:
(§1) COS-7 cells (ATCC) were seeded into a 96-well flat-bottomed plate (1.4 × 10^4 cells per 100 μl per well) and incubated overnight. The next day, the COS-7 cells were transfected by adding 10 μl of a mixture of hPTHR1, hPTHR2 or mutant hPTHR1 plasmid, rat PTHR1 or rat PTHR2 plasmid, or empty vector (0.1 μg per well), FuGENE HD Transfection Reagent (0.4 μl per well, Promega), and Opti-MEM I Reduced Serum Medium (10 μl per well, Life Technologies) to each well. […] The plate was placed in a 37 °C constant-temperature water bath for 20 min to allow the reaction to proceed. After incubation, the liquid in the wells was discarded, the wells were washed with the assay medium (100 μl per well), and the plate was frozen on dry ice. Next, 40 μl of 50 mmol l^−1 HCl was added to each well, and the plate was stored in a freezer set at ≤−20 °C. The cAMP concentrations were measured by using a cAMP EIA kit (GE Healthcare). EC50 values were determined from three independent experiments in duplicate by a non-linear regression Emax model (JMP ver.9.0.2, SAS Institute). The geometric mean of the EC50 values obtained in three experiments in duplicate was calculated using Microsoft Office Excel 2007. […]
Background: Cyclic AMP is a second messenger, typically raised through Gs and lowered through Gi signalling.

In data set [1] the target is T2, hPTHR1–hPTHR2 chimeric receptors (C1, C2, C3) and mutant hPTHR1s (M24, M25, M26, M414V, P415L, L416V) (Homo sapiens, UniProt Q03431, A426C/A97V/D353E/D94P/DEL429-429/E431S/E93Y/E96D/G100Y/G350R/I363Y/K359I/K95Y/L436G/L446F/M425V/M445L/N348D/N358D/Q438E/Q440R/S101A/S341V/S356A/S370A/S433T/T349A/T427L/T430H/T435L/T99D/V334A/V338A/V340A/V342A/V365A/V372G/V432F/V439I/Y443C).
T2 construct: expressed in transfected cells; host or cells: COS-7 (transient)
It counts as cell-based. Conditions: cells expressing C3. The procedure:
as §1

For data set [2], the target named is T3, hPTHR1–hPTHR2 chimeric receptors (C1, C2, C3) and mutant hPTHR1s (M24, M25, M26, M414V, P415L, L416V) (Homo sapiens, UniProt Q03431, L416V/M414V/P415L).
T3 construct: expressed in transfected cells; host or cells: COS-7 (transient)
T3 sequence (Q03431 27-593 E93Y/D94P/K95Y/E96D/A97V/T99D/G100Y/S101A/M414V/P415L/L416V): T1 sequence (Q03431 27-593 E93Y/D94P/K95Y/E96D/A97V/T99D/G100Y/S101A) with M388V, P389L, L390V
It counts as cell-based. Conditions: mutant receptor M25 (M414, P415, L416 replaced). On the procedure:
as §1

For data set [3], the system named is hPTHR1–hPTHR2 chimeric receptors (C1, C2, C3) and mutant hPTHR1s (M24, M25, M26, M414V, P415L, L416V). It counts as cell-based, human. The procedure:
as §1

The nature of data set [4]: Pharmacokinetics in OVX rats. It counts as in vivo. As to conditions: female, Crl:CD(SD), rat, plasma, iv.

Substitutions are numbered along the chain they refer to. Read-outs that look alike come from different tables or passages of the source.

The EC50 is the concentration that produces a half-maximal response. Low readings indicate greater potency, high ones weaker potency.

T2 sequence (Q03431 other isoform, or with tags, fused parts or gaps with the stated changes): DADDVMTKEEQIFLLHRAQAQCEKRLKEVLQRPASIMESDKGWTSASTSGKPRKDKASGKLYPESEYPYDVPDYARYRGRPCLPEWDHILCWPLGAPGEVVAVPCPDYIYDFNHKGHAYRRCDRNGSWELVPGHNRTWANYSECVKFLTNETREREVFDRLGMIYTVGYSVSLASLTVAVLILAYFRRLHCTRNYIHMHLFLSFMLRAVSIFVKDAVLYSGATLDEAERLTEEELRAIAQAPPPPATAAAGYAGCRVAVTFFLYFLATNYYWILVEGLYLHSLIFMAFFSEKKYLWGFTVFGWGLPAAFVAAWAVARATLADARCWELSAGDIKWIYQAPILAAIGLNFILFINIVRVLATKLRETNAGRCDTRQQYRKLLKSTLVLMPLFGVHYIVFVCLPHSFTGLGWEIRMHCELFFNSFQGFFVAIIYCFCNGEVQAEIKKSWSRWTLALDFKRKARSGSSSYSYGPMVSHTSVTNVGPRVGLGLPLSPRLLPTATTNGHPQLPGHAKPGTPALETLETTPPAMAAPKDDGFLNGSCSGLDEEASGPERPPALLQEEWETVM

On hPTHR1, `Cc1cc(N2C(=O)NC(=O)C2(C)C)cc(C)c1CCS(=O)(=O)N1CCC2(CC1)N=C(c1ccc(OC(F)(F)F)cc1)NC2=O` [PCO371, 1-{3,5-dimethyl-4-[2-({4-oxo-2-[4-(trifluoromethoxy)phenyl]-1,3,8-triazaspiro[4.5]dec-1-en-8-yl}sulfonyl)ethyl]phenyl}-5,5-dimethylimidazolidine-2,4-dione] displayed an EC50 of 2.4 µM. Further, the cAMP response result in data set [1] is “responded well”; in data set [3] (single replacements M414V and L416V) it was “only modest effects”. Besides, the cAMP increase result in data set [2] is reported as “lack of cAMP increase”. The cAMP result in data set [3] (cells expressing C1 or C2) was “did not do so”. In addition, the concentration at 2 min in data set [4] (i.v. 3 mg kg-1, read-out: C2min (concentration at 2 min after administration)) amounted to 17500 ng/mL; in data set [4] (i.v. 10 mg kg-1, read-out: C2min (concentration at 2 min after administration)), 50100 ng/mL.

These data come from publication PMC5120204, “Identification of an orally active small-molecule PTHR1 agonist for the treatment of hypoparathyroidism” (Nature Communications, 2016).
